Test results: US20260232666A1, “COMPOSITIONS AND METHODS FOR INHIBITION OF RAS” (TheRas, Inc., priority 2023, published 2026)

Experiments:
[1] = target: T1, GppNHp-loaded KRAS4b (amino acids 1-169) G12C/C118S protein (Homo sapiens, UniProt P01116, C118S/G12C); assay: Covalent cysteine 12 modification by MALDI-TOF MS, GppNHp-loaded KRAS G12C; format: binding; details: 15 minutes reaction time point
T1 construct: KRAS4b (amino acids 1-169) G12C/C118S protein; made in house
Method in brief: (§1)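 1 μM protein + cpd (1:2.5), HEPES 20 mM/NaCl 150 mM/MgCl2 1 mM pH 7.3, RT, dark, 15 min. Linear MALDI-TOF, sinapinic acid matrix. % mod = modified/(modified + unmodified) peak height.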

[2] = target: T2, GDP-loaded KRAS4b (amino acids 1-169) G12C/C118S protein (Homo sapiens, UniProt P01116, C118S/G12C); assay: Covalent cysteine 12 modification by MALDI-TOF MS, GDP-loaded KRAS G12C; format: binding; details: 15 minutes reaction time point
T2 construct: KRAS4b (amino acids 1-169) G12C/C118S protein; made in house
Method in brief: as §1

[3] = tested on: pERK in NCI-H358 cells; assay: Cell-based pERK HTRF assay (pERK inhibition in H358 cells); details: 30 min incubation
Method in brief: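 NCI-H358 cells were seeded at 4×10^4 cells/well in RPMI/10% FBS, then treated next day for 30 min at 0.25% DMSO (9-point, 3-fold series from 75 μM). Lysates were read by HTRF (d2/Eu cryptate antibody pair, 615 nm emission) after 4–24 h at room temperature to give pERK IC50.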

Structure (SMILES) | GppNHp-KRAS G12C percent of modification [1] | GDP-KRAS G12C percent of modification [2] | IC50 ([3]; Homo sapiens, NCI-H358, 0.5 h) [nM] | IC50 [3] [nM]
C=CC(=O)N1CC[C@@H](N(C)c2nc(OC[C@@H]3C[C@@H](F)CN3C)nc3c(F)c(-c4ccc(F)c5sc(N)c(C#N)c45)c(Cl)cc23)[C@H]1C [Compound 61] | C (10%≤percent of modification <50%) |  | < 100 | 
C=CC(=O)N1CC[C@@H](N(C)c2nc(OC[C@@H]3CCCN3C)nc3c(F)c(-c4ccc(F)c5sc(N)c(C#N)c45)c(Cl)cc23)[C@H]1C [Compound 59] | A (percent of modification ≥70%) |  |  | < 100
C=CC(=O)N1CC[C@@H](N(CC)c2nc(OC[C@@]34CCCN3C[C@H](F)C4)nc3cc(-c4ccc(F)c5sc(N)c(C#N)c45)c(C#N)cc23)[C@@H]1C [Compound 56] | B (50≤percent of modification <70%) | A (percent of modification ≥70%) | < 100 | 
C=CC(=O)N1CC[C@@H](N(C)c2nc(OC[C@@H]3CCCN3C)nc3c(F)c(-c4ccc(F)c5sc(N)c(C#N)c45)c(C(F)(F)F)cc23)[C@H]1C [Compound 67] | A (percent of modification ≥70%) | A (percent of modification ≥70%) |  | < 100
C=CC(=O)N1CC[C@@H](N(C)c2nc(OC[C@@H]3C[C@@H](F)CN3C)nc3c(F)c(-c4ccc(F)c5sc(N)c(C#N)c45)c(C(F)(F)F)cc23)[C@H]1C [Compound 55] | A (percent of modification ≥70%) | A (percent of modification ≥70%) | < 100 | 
C=CC(=O)N1CC[C@@H](N(C)c2nc(OC[C@@]34CCCN3C[C@H](F)C4)nc3c(F)c(-c4ccc(F)c5sc(N)c(C#N)c45)c(Cl)cc23)[C@@H]1C (atropisomer, axis not shown) [Compound 68] | A (percent of modification ≥70%) | A (percent of modification ≥70%) | < 100 | 
C=CC(=O)N1CCC(N(C)c2nc(OC[C@@H]3CCCN3C3CC3)nc3c(F)c(-c4ccc(F)c5sc(N)c(C#N)c45)c(C(F)(F)F)cc23)[C@H]1C (stereo partly shown) [Compound 1] | C (10%≤percent of modification <50%) | B (50≤percent of modification <70%) | 100 to 1000 | 
C=CC(=O)N1CC[C@@H](N(C)c2nc(OC[C@@]34CCCN3C[C@H](F)C4)nc3cc(-c4ccc(F)c5sc(N)c(C#N)c45)c(C#N)cc23)[C@H]1CC [Compound 42] | A (percent of modification ≥70%) | A (percent of modification ≥70%) | < 100 | 
C=CC(=O)N1CC[C@@H](N(CC)c2nc(OC[C@@]34CCCN3C[C@H](F)C4)nc3cc(-c4ccc(F)c5sc(N)c(C#N)c45)c(F)cc23)[C@@H]1CC [Compound 41] | D (percent of modification <10%) | A (percent of modification ≥70%) | 100 to 1000 | 
C=CC(=O)N1CC[C@@H](N(CC)c2nc(OC[C@@H]3C[C@@H](F)CN3C)nc3c(F)c(-c4ccc(F)c5sc(N)c(C#N)c45)c(Cl)cc23)[C@H]1C [Compound 60] | B (50≤percent of modification <70%) | C (10%≤percent of modification <50%) | < 100 | 
C=CC(=O)N1CC[C@@H](N(C)c2nc(OC[C@@H]3CC4(CC4)CN3C)nc3c(F)c(-c4ccc(F)c5sc(N)c(C#N)c45)c(Cl)cc23)[C@H]1C [Compound 64] | B (50≤percent of modification <70%) |  | < 100 | 
C=CC(=O)N1CC[C@@H](N(CC)c2nc(OC[C@@H]3CCCN3C)nc3c(F)c(-c4ccc(F)c5sc(N)c(C#N)c45)c(C(F)(F)F)cc23)[C@H]1C [Compound 66] | A (percent of modification ≥70%) |  | < 100 | 
C=CC(=O)N1CC[C@@H](N(CC)c2nc(OC[C@@H]3CC4(CC4)CN3C)nc3c(F)c(-c4ccc(F)c5sc(N)c(C#N)c45)c(C(F)(F)F)cc23)[C@H]1C [Compound 65] | A (percent of modification ≥70%) |  | < 100 | 

The next lines start with the values.

GppNHp-KRAS G12C percent of modification [1] | GDP-KRAS G12C percent of modification [2] | IC50 ([3]; Homo sapiens, NCI-H358, 0.5 h) [nM] | IC50 [3] [nM] | Structure (SMILES)
A (percent of modification ≥70%) | A (percent of modification ≥70%) | < 100 |  | C=CC(=O)N1CC[C@@H](N(C)c2nc(OC[C@@H]3C[C@@H](OC)CN3CC)nc3c(F)c(-c4ccc(F)c5sc(N)c(C#N)c45)c(Cl)cc23)[C@@H]1C [Compound 100]
A (percent of modification ≥70%) | A (percent of modification ≥70%) | < 100 |  | C=CC(=O)N1CC[C@@H](N(C)c2nc(OC[C@@H]3CCCN3C)nc3c(F)c(-c4ccc(F)c5sc(N)c(C#N)c45)c(Cl)cc23)[C@@H]1C [Compound 83]
A (percent of modification ≥70%) | A (percent of modification ≥70%) | < 100 |  | C=CC(=O)N1CC[C@@H](N(CC)c2nc(OC[C@@]34CCCN3C[C@H](F)C4)nc3c(F)c(-c4ccc(F)c5sc(N)c(C#N)c45)c(C(F)(F)F)cc23)[C@@H]1C [Compound 86]
A (percent of modification ≥70%) | A (percent of modification ≥70%) | 100 to 1000 |  | C=CC(=O)N1CC[C@@H](N(CC)c2nc(OC[C@@]34CCCN3C[C@H](F)C4)nc3cc(-c4ccc(F)c5sc(N)c(C#N)c45)c(F)cc23)[C@H]1CC [Compound 76]
A (percent of modification ≥70%) |  | < 100 |  | C=CC(=O)N1CC[C@@H](N(C)c2nc(OC[C@@H]3C[C@@H](OC)CN3C)nc3c(F)c(-c4ccc(F)c5sc(N)c(C#N)c45)c(Cl)cc23)[C@@H]1C [Compound 79]
A (percent of modification ≥70%) | A (percent of modification ≥70%) | < 100 |  | C=CC(=O)N1CC[C@@H](N(C)c2nc(OC[C@@]34CCCN3C[C@H](F)C4)nc3c(F)c(-c4nc(N)cc(C)c4C(F)(F)F)c(C(F)(F)F)cc23)[C@@H]1C [Compound 91]
A (percent of modification ≥70%) | A (percent of modification ≥70%) |  | < 100 | C=CC(=O)N1CC[C@@H](N(CC)c2nc(OC[C@@H]3CC4(CC4)CN3C)nc3c(F)c(-c4ccc(F)c5sc(N)c(C#N)c45)c(Cl)cc23)[C@H]1C [Compound 75]
D (percent of modification <10%) | D (percent of modification <10%) |  | 100 to 1000 | C=CC(=O)N1CC[C@@H](N(C)c2nc(OC[C@@]34CCCN3C[C@H](F)C4)nc3c(F)c(-c4ccc(F)c5sc(N)c(C#N)c45)c(Cl)cc23)[C@@H]1C (atropisomer, axis not shown) [Compound 69]
 | B (50≤percent of modification <70%) | < 100 |  | C=CC(=O)N1CC[C@@H](N(C)c2nc(OC[C@@H]3CCCN3CC)nc3c(F)c(-c4ccc(F)c5sc(N)c(C#N)c45)c(C(F)(F)F)cc23)[C@H]1C [Compound 88]
A (percent of modification ≥70%) |  | < 100 |  | C=CC(=O)N1CC[C@@H](N(C)c2nc(OC[C@@H]3CCCN3CC)nc3c(F)c(-c4ccc(F)c5sc(N)c(C#N)c45)c(Cl)cc23)[C@@H]1C [Compound 84]
